Test system: youth with ASD
Experiment: Treatment response based on baseline PgACC glutamate activity (high vs normal; treatment group-by-glutamate-by-visit interaction)
Format: in vivo, human
Conditions: for Mean # of AEs / # of Participants with AEs / Treatment-Limiting AEs: TOLERABILITY
Method: The primary outcome was analyzed using Pearson's chi-square test at the a priori defined significance level of 0.05. Secondary measures of efficacy were analyzed using mixed-effects regression models with robust standard errors to account for the repeated measures on each subject. The primary and secondary measures were compared between memantine versus placebo as well as between those with high versus normal baseline glutamate activity levels. Participants were categorized as having high versus normal glutamate activity levels at baseline using z-scores. The population mean and SD for z-score calculations were derived from healthy control glutamate activity levels (baseline and endpoint). Glutamate activity levels with z-scores≥1 were categorized as high glutamate activity levels, those with z-scores<1 and >−1 were categorized as normal glutamate activity levels and those with z-scores≤−1 were categorized as low glutamate activity levels. Changes in PgACC glutamate activity levels within groups were tested using paired t-tests and changes between groups were tested using two-sample t-tests. We also performed ROC curve analyses to determine the predictive utility of baseline PgACC glutamate activity levels in identifying treatment responders within the memantine and placebo groups. All analyses apart from the analysis of the primary outcome were considered exploratory. Analyses were performed using a modified intent-to-treat analysis set which included all randomized patients who were regarded exposed to study medication (completed at least two weeks of treatment) and had at least one follow-up assessment.
The mixed-effects regression models used to analyze the secondary measures of efficacy predicted the outcome measure from treatment group (memantine versus placebo), study visit (continuous), and the treatment group-by-study visit interaction, which is our test of efficacy. To examine the effect of baseline PgACC glutamate activity level on the response to treatment, we predicted outcomes measures from treatment group, study visit (continuous), PgACC glutamate activity level (continuous), treatment group-by-study visit interaction, glutamate activity level-by-study visit interaction, treatment group-by-glutamate activity level interaction, and treatment group-by-glutamate activity level-by-study visit interaction. All mixed-effects regression models had random intercepts by subject ID, used robust standard errors to account for the repeated measures on each subject, and used an independent covariance structure for the random effects. […] All missing data were assumed to be missing at random.
Effect sizes are presented as standardized mean differences (SMD) for continuous outcomes and odds ratios (OR) for dichotomous outcomes. The SMDs for the difference of the changes in scores over time between memantine and placebo and between high glutamate and normal glutamate were calculated as Cohen's d using the following calculations: the difference in the change scores between the two groups divided by the pooled standard deviation. The SMDs for changes in scores within groups were calculated as Cohen's d using the following calculation: difference in score from baseline to endpoint divided by the pooled standard deviation. For comparisons of memantine versus placebo and high glutamate versus normal glutamate, positive SMDs and ORs>1 indicate better improvement in the memantine group and high glutamate group, respectively. For comparisons of ASD versus healthy controls, positive SMDs indicate lower glutamate activity levels in the ASD group. As defined by Cohen (Statistical Power Analysis for the Behavioral Sciences. 2nd ed. Hillsdale, NJ: Erlbaum. 1988), a SMD=0.2 is interpreted as a small effect size, SMD=0.5 as medium, and SMD=0.8 as large. We considered ORs>2 to be clinically meaningful.

[1] = HIGH glutamate activity levels, MEM N = 10
[2] = NORMAL glutamate activity levels, MEM N = 5
[3] = NORMAL glutamate activity levels, MEM N = 8

## CC12CC3CC(C)(C1)CC(N)(C3)C2 [MEM, memantine]
[1]
  ABC-Social Withdrawal MD: −8.5 ± 7.6
  ADHD-RS MD: −9.9 ± 11.7
  CASI-ANX MD: −10.3 ± 5.1
  CDRS-R MD: −9.8 ± 11.2
  CGI-1≤2: 9 (90) N (%)
  CY-BOCS-PDD MD: −0.5 ± 1.6
  GAF MD: 9.1 ± 5.4
  SRS-Autistic Mannerisms MD: −10.3 ± 5.3
  SRS-SCI MD: −39.8 ± 21.1
  SRS-Social Awareness MD: −5.0 ± 4.2
  SRS-Social Cognition MD: −8.1 ± 5.8
  SRS-Social Communication MD: −17.9 ± 7.7
  SRS-Social Motivation MD: −8.8 ± 5.3
  SRS-Total MD: −50.1 ± 25.7
  ≥25% ↓↓SRS: 9 N
  ≥25% ↓↓SRS + CGI-I ≤ 2: 8 (80) N (%)
  # of Participants with AEs: 7 (70) N (%)
  Treatment-Limiting AEs: 0 (0) N (%)
[2]
  ABC-Social Withdrawal MD: −3.6 ± 5.6
  ADHD-RS MD: −8.2 ± 7.4
  CASI-ANX MD: −2.4 ± 5.2
  CDRS-R MD: −8.0 ± 11.8
  CGI-≤2: 3 (60) N (%)
  CY-BOCS-PDD MD: −2.0 ± 2.8
  GAF MD: 4.6 ± 4.3
  SRS-Autistic Mannerisms MD: −1.8 ± 5.1
  SRS-SCI MD: −9.2 ± 5.3
  SRS-Social Awareness MD: −0.8 ± 1.8
  SRS-Social Cognition MD: −2.0 ± 2.6
  SRS-Social Communication MD: −2.8 ± 2.7
  SRS-Social Motivation MD: −3.0 ± 4.0
  SRS-Total MD: −10.6 ± 10.6
  ≥25% WISRS±CGI-1≤2: 0 (0) N (%)
  ≥25% WLSRS: 0 (0) N (%)
HIGH glutamate activity levels, MEM N = 7
  Mean # of AEs: 2.4 ± 1.3
NORMAL glutamate activity levels, MEM N = 6
  Mean # of AEs: 2.8 ± 1.0
[3]
  # of Participants with AEs: 4 (50) N (%)
  Treatment-Limiting AEs: 2 (25) N (%)
Memantine group
  Association of higher baseline PgACC glutamate activity levels with change scores (SRS Total, SRS-SCI, ABC-Social Withdrawal): greater change scores

Reference: patent publication US20240130675A1, “Methods for Treating Autism Spectrum Disorder” (The General Hospital Corporation, priority 2021, published 2024)
